{"source": "patent US20150202179A1", "about": "“FATTY ACID DERIVATIVES FOR USE IN A METHOD OF TREATING DEPRESSION AND ASSOCIATED CONDITIONS” (YISSUM RESEARCH DEVELOPMENT COMPANY OF THE HEBREW …, priority 2012, published 2015)", "experiment": "Forced Swim Test (FST), separated BALB/c mice", "type": "in vivo", "conditions": "compounds 1 mg/kg i.p., imipramine 10 mg/kg i.p.; day 8; in relation to vehicle", "method": "Forced swim test (FST): The animal is placed in a circular, transparent, plexiglass tank measuring 21 cm in diameter and 46 cm in height containing water 15 cm high, maintained at 23-25° C. […] Also measured is the latency period, the time elapsing, for each animal from immersion in the water tank until the first occurrence of immobility. Since climbing activity is minimal in mice, […].\n50, 2 month old female BALB/c mice, 10 mice per group, on ad libitum diet were separated (each mouse in a different cage) for 9 days (Separation Stress, a model for depression). On the 7, 8, 9, 34-40 days mice were administered with either vehicle or compounds x, 12 and 15 (1 mg/kg i.p.) or imipramine 10 mg/kg (antidepressant) i.p. and tested in the forced swim test (FST) on day 8.", "data": [{"smiles": "CCCCCCCC/C=C\\CCCCCCCC(=O)N[C@H](CO)C(C)C", "note": "[Compound 1, oleoyl-L-valinol amide]", "values": [{"measurement": "swimming activity in forced swim test", "result": "significantly enhanced swimming activity"}]}]}
